Source: paper PMC7037393, “Synthesis, Structural, and Cytotoxic Properties of New Water-Soluble Copper(II) Complexes Based on 2,9-Dimethyl-1,10-Phenanthroline and Their One Derivative Containing 1,3,5-Triaza-7-Phosphaadamantane-7-Oxide” (Molecules, 2020)

Legend:
[1] = tested on: A549 (human lung carcinoma); test: Cytotoxicity on A549 cells, quantitative suspension test according to EN 14476; type: cell-based; details: observed 4 days, aqua media
Procedure: (§1) Normal human dermal fibroblasts (NHDF) (PromoCell, C-12302) were used as normal cells and LoVo (human colorectal adenocarcinoma, ATCC® CCL-229™), A549 (human lung carcinoma, ATCC, No. CCL-185 TM), MCF-7 (human breast adenocarcinoma, ATCC, No. HTB-22^TM) and HeLa (human cervix carcinoma, ATCC, No. CCL-2 TM) were used as cancer cells. They were cultured in DMEM, DMEM–F12 or EMEM (Lonza, CA, USA). Media were supplemented with 10% FBS (Biological Industries, Kibbutz Beit-Haemek, Israel), 2 mM L-glutamine (Biological Industries, Israel), 100 U/mL of penicillin and 100 µg/mL of streptomycin (Sigma, Neustadt an der Weinstrasse, Germany).
(§2) The 100 μL of suspension of NHDF, A549, HeLa, LoVo, and MCF7 cells at a density of 4 × 10^4 cells mL^−1 were incubated in a 96-well polystyrene plate (NUNC, Denmark) for 24 h. Product test solutions were prepared in DMEM, DMEM–F12, or EMEM supplemented with additional 2% FBS and 2 mM L-glutamine. Solutions of the reagents at concentrations from 460 (for 1), 454 (2), […] (3), 1242 (Cu(NO3)2), 1732 (PTA=O), and 1440 µM (dmphen) to 4.60 × 10^−6, 4.54 × 10^−6, 4.69 × 10^−6, 1.24 × 10^−5, 1.73 × 10^−5, and 1.44 × 10^−5 µM, respectively, were prepared and transferred (100 μL) into cell culture units (wells of microtiter plates) containing monolayer of cells. Eight units were inoculated with each dilution. Plates were incubated in 37 °C, 5% CO2 and observed daily for 4 days for the development of cytotoxic effect, using an inverted microscope (Olympus Corp., Hamburg, Germany, Axio Observer, Carl Zeiss MicroImaging GmbH). Then the wells were washed in phosphate buffered saline (PBS) and stained using DAPI (4′,6-diamidino-2-phenylindole) and propidium iodide (Merck, Darmstadt, Germany). The study used the fact that DAPI is able to be combined with cellular DNA, permeate through the membrane of cell, rapidly enter the nucleus of living cells and bind with DNA to form a DAPI-DNA complex. […] In cell culture these are cells that are apoptotic or damaged by any physical or chemical agent. Therefore, if these two fluorochrome are given at the same time, DAPI will get to healthy cells faster, while propidium iodide will stain dead or dying cells. The calculation of the ratio of cells counted on a specific area, allows to determine the potency of a substance in inhibiting a specific biological function (IC50).

[2] = biological target: T1, human apo-transferrin (apo-Tf) (Homo sapiens, UniProt P02787); test: Apo-transferrin interaction by fluorescence quenching (Stern-Volmer, binding, van't Hoff); details: for Kq (quenching rate constant): Kq = Ksv/τo, τo 2.5 ns; for Ka (association constant) / Ksv (Stern-Volmer quenching constant): PBS pH 7.40; for H^0 (enthalpy change) / S^0 (entropy change): van't Hoff, 300 and 310 K
T1 construct: purchased Sigma-Aldrich
T1 sequence (P02787 20-698): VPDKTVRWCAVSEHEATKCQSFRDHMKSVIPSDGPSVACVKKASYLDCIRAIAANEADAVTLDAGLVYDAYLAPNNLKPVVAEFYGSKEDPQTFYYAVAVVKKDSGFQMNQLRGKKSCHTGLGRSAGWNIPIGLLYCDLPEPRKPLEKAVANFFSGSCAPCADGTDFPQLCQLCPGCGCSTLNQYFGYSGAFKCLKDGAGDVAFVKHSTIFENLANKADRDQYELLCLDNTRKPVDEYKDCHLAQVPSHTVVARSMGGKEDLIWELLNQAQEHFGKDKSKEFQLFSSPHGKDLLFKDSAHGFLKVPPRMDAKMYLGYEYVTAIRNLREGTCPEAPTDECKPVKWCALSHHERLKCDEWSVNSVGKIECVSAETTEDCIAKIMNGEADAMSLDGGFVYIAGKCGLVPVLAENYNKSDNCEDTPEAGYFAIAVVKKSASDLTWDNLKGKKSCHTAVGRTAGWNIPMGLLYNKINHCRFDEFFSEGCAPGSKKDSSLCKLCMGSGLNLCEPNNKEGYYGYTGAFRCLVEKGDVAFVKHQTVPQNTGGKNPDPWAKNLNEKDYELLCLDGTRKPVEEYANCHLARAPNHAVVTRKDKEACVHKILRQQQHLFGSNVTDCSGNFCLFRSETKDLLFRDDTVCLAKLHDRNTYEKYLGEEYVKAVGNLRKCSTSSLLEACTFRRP
Excerpt: There are two mechanisms of fluorescence quenching, dynamic and static, that can be distinguished based on the temperature dependency. Dynamic quenching is due to collisions between quencher and fluorophore and static quenching results from the formation of the ground state complex between the molecules. A modified Stern–Volmer equation (Equation (3)) was used to calculate Stern–Volmer quenching constants (KSV) and quenching rate constants (Kq) of the interactions between apo-transferrin and copper complexes and to determine the mechanism of fluorescence quenching. Fo/(Fo − F) = 1/fa + 1/(faKsv[Q])(3)
In the equation, Fo and F are the fluorescence intensities of protein in the absence and presence of the quencher in the concentration (Q), respectively; KSV is the Stern–Volmer quenching constant; and fa is the fraction of the fluorophore accessible to the quencher.
Kq, the quenching rate constant of the biomolecules, is expressed as:Kq = Ksv/τo(4) where τo is the fluorescence lifetime of protein without quencher. For apo-transferrin, the τo value is 2.5 ns.
Association constants (Ka) and number of binding sites (n) were determined based on the Equation (5):log {(Fo − F)/F} = logKa + nlog[Q](5) where Fo and F are the fluorescence intensities in the absence and presence of the quencher in the concentration (Q), respectively, Ka is the binding constant, and n is the number of binding sites.
It is known that interactions between proteins and small molecules include hydrogen bonds, van der Waals, and electrostatic forces as well hydrophobic interactions. Based on thermodynamic parameters, we determined the type of interaction of copper complexes with apo-transferrin.
∆G^0 = ∆H^0 − T∆S^0(7) where Ka is the bimolecular binding constant at the corresponding temperature (T); R is the gas constant; and ΔH^0, ΔS^0, and ΔG^0 are enthalpy, entropy, and free energy change, respectively.
High purity apo-transferrin (≥ 98%, Sigma-Aldrich, Steinheim, North Rhine-Westphalia, Germany) was used without prior purification. The stock solutions of the complexes were prepared in demineralized water (1 and 2) or ethanol (3). The apo-Tf was dissolved in PBS (pH 7.40). The molar ratios of the final samples in PBS were (protein):(drug) = 1:0–1:16 in PBS with the protein concentration equal 2 μM. Samples were incubated at 300 and 310 K for 5 min. The apo-Tf concentration was determined using ε (280 nm) = 11.2 mM^−1 × cm^−1.
Emission fluorescence spectra were recorded on Jasco 8200 spectrofluorimeter (Tokyo, Japan) in the range of 300–500 nm using 1.0 cm quartz cells. The λex was set to 280 nm and the excitation and emission slit widths were set to 5 nm. All fluorescence intensities were corrected (according to Equation (8)) for the inner filter and dilution effects and the corrected values were used to determine the quenching mechanism and binding data. […] Therefore, all spectra are shown as different spectra of (apo-Tf-copper complex)−(copper complex). Fcorr = exp(A280 + Aem/2) × Fexp(8)

[3] = tested on: HeLa (human cervix carcinoma); test: Cytotoxicity on HeLa cells, quantitative suspension test according to EN 14476; type: cell-based; details: observed 4 days, aqua media
Procedure: as §1, §2

[4] = Solubility in water at 25 °C, stepwise water addition; type: physicochemical; details: H2O
Procedure: The copper complexes 1–3 were air stable in the solid state and at least for several days in H2O solutions. In a general procedure, the complex was dissolved in H2O in air atmosphere. […] Also UV-Vis spectra of water solutions of 1-3 confirm their stability in several days. […] After each addition of an amount of water (100 µL), the mixture was shaken for several minutes and then visually checked for any undissolved parts of the sample.

| Compound | IC50 [1] | G^0 (free energy change) ([2]; 300 K) | n (number of binding sites) ([2]; 300 K) | Kq (quenching rate constant) ([2]; 300K) | Ka (association constant) ([2]; 300K) | Ksv (Stern-Volmer quenching constant) ([2]; 300K) | G^0 (free energy change) ([2]; 310 K) | n (number of binding sites) ([2]; 310 K) | Kq (quenching rate constant) ([2]; 310K) | Ka (association constant) ([2]; 310K) | Ksv (Stern-Volmer quenching constant) ([2]; 310K) | H^0 (enthalpy change) [2] | S^0 (entropy change) [2] | IC50 [3] | solubility in water S25 °C [4] | Ksv values ([2]; 300 K) | Ksv values ([2]; 310 K) |
| --- | --- | --- | --- | --- | --- | --- | --- | --- | --- | --- | --- | --- | --- | --- | --- | --- | --- |
| Cc1ccc2ccc3ccc(C)nc3c2n1.F[P-](F)(F)(F)(F)F.O=P12CN3CN(CN(C3)C1)C2.O=[N+]([O-])[O-].[Cu+2] [Complex 1, [Cu(NO3)(PTA=O)(dmphen)][PF6]] | 290 ± 10 nM | -8.253 kcal/mol | 1.26 ± 0.033 | 1.00 ± 0.011 ·10^13 [M^−1s^−1] | 1.03 ± 0.16 ·10^6 [M^−1] | 2.50 ± 0.011 ·10^4 [M^−1] | -8.406 kcal/mol | 1.24 ± 0.036 | 1.17 ± 0.029 ·10^13 [M^−1s^−1] | 0.843 ± 0.17 ·10^6 [M^−1] | 2.92 ± 0.029 ·10^4 [M^−1] | -3.664 kcal/mol | 63.99 J mol^−1 K^−1 | 1120 ± 160 nM | 3.8 mg mL^−1 and ≈ 3.8 mg mL^−1 |  |  |
| Cc1ccc2ccc3ccc(C)nc3c2n1.Cc1ccc2ccc3ccc(C)nc3c2n1.F[P-](F)(F)(F)(F)F.[Cl-].[Cu+2] [Complex 2, [Cu(Cl)(dmphen)2][PF6]] | 280 ± 40 nM | -9.118 kcal/mol | 1.35 ± 0.050 | 1.61 ± 0.050 ·10^13 [M^−1s^−1] | 4.38 ± 0.24 ·10^6 [M^−1] | 4.03 ± 0.050 ·10^4 [M^−1] | -9.19 kcal/mol | 1.31 ± 0.066 | 2.27 ± 0.024 ·10^13 [M^−1s^−1] | 3.04 ± 0.32 ·10^6 [M^−1] | 5.69 ± 0.024 ·10^4 [M^−1] | -6.75 kcal/mol | 33.02 J mol^−1 K^−1 | 1130 ± 170 nM | 2.5 mg mL^−1 and ≈ 2.5 mg mL^−1 |  |  |
| CC#N.Cc1ccc2ccc3ccc(C)nc3c2n1.O=[N+]([O-])[O-].O=[N+]([O-])[O-].[Cu+2] [Complex 3, [Cu(NO3)2(dmphen)]∙MeCN] | 430 ± 60 nM | -9.563 kcal/mol | 1.40 ± 0.076 |  | 9.26 ± 0.37 ·10^6 [M^−1] | 5.37 ± 0.023 ·10^4 [M^−1] | -9.888 kcal/mol | 1.42 ± 0.068 | 1.40 ± 0.062 ·10^13 [M^−1s^−1] | 9.38 ± 0.33 ·10^6 [M^−1] | 3.51 ± 0.062 ·10^4 [M^−1] | 230 kcal/mol | 136.57 J mol^−1 K^−1 | 430 ± 60 nM | 2.9 mg mL^−1 and ≈ 2.9 mg mL^−1 | 53700 M⁻¹ | 35100 M⁻¹ |
